Laboratory results reported in patent publication US20240246920A1, “TRIAZOLE DERIVATIVES WITH ANTIFUNGAL ACTIVITY” (King's College London, priority 2020, published 2024).
In brackets after ≈: the same amount, converted by molar mass. Like-named read-outs stand apart in the source and are kept apart here.

Experiments:
C. krusei NCPF3876 = assay: microbe, parasite or virus in culture; assay type: cell-based, Candida krusei; details: Pichia kudriavzevii
Summary of the method: (§1)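 MIC taken as lowest concentration inhibiting growth ≥50% relative to drug-free control, from OD530 after 24 hours at 37° C. Fungi at 0.5-5×10^5/mL were exposed to serially diluted compound in RPMI 1640/MOPS/2% glucose medium adjusted to pH 7.0.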

C. albicans NCPF3281 = assay: Candida panel MIC, serial dilution in 96-well plates; assay type: cell-based, Candida albicans; details: NCPF3281, read-out: MIC C. albicans NCPF3281
Summary of the method: (§2)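 Overnight starter cultures were diluted to OD600 0.01 and added to serially diluted compound (128 to 0.25 μg/mL) in MOPS-buffered RPMI with 2% glucose, pH 7.0, giving 0.5-5×10^5 cells/mL. After 24 h at 37 °C, OD530 was measured and the ≥50% inhibition endpoint taken as MIC.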

C. parapsilosis NCPF3209 = assay: microbe, parasite or virus in culture; assay type: cell-based, Candida parapsilosis; details: Lodderomyces parapsilosis
Summary of the method: as §1

Candida auris TDG1102 = assay: Candida panel MIC, serial dilution in 96-well plates; assay type: cell-based; details: Candidozyma auris, TDG1102; Table 4, extended panel; 24 hours, ≥50% inhibition; read-out: MIC Candida auris TDG1102
Summary of the method: as §2

Candida auris TDG2512 = assay: as above; assay type: cell-based; details: Candidozyma auris, TDG2512; Table 4, extended panel; 24 hours, ≥50% inhibition; read-out: MIC Candida auris TDG2512
Summary of the method: as §2

C. auris TDG1912 = assay: as above; assay type: cell-based; details: Candidozyma auris, TDG1912; Table 4; 24 hours, ≥50% inhibition; read-out: MIC C. auris TDG1912
Summary of the method: as §2

C. tropicalis NCPF8760 = assay: as above; assay type: cell-based
Summary of the method: as §2

panel of Candida species = assay: Candida panel MIC, statements on the whole panel; assay type: cell-based; details: in words
Method: (§3) The minimum inhibitory concentration of test compounds were determined in a panel of Candida species (see Table 4 below), using the a serial dilution method in 96-well plates using the following protocol.
(§4) Starter cultures of fungal strains to be tested were grown in 3 mL of RPMI 2% glucose media incubated at 37° C. with shaking at 200 rpm overnight. The culture media used was 900 mL H2O; 10.4 g RPMI 1640 (with L-glutamine and a pH indicator but without bicarbonate); 34.5 g MOPS and 18 g glucose. The pH of the media was adjusted to 7.0 with 1 M sodium hydroxide.
(§5) Solutions of the compound to be tested were prepared by dissolving the compound in DMSO and subsequently into media to the desired concentrations. 200 μL of compound solution was then added to the wells of the 96-well plate using a serial dilution method row-by row of the plate to give a compound concentration gradient across the plate of from 128 μg/mL to 0.25 μg/mL. The last two rows of each plate were control rows containing the culture media alone and the media plus fungi.
(§6) The fungi starter cultures were diluted 1:10 in water in cuvettes. This was then further diluted to an optical density (OD600) of 0.01 in media. 100 μL of the fungi was added to each well giving a starting concentration of fungus of 0.5-5×10^5/mL. One species of fungus was used on each plate. The plates were then held at 37° C. for 24 hours.
(§7) A plate reader was used to measure growth in each well at OD530 nm and the MIC was determined for each test compound. The MIC is defined as the lowest concentration giving rise to inhibition of ≥50% of that of the drug-free control well containing the fungus and media.

Candida auris TDG2211 = assay: microbe, parasite or virus in culture; assay type: cell-based; details: Candidozyma auris
Summary of the method: (§8)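 MIC = lowest concentration inhibiting growth ≥50% relative to drug-free control, read by OD530 nm after 24 h at 37° C. Medium: RPMI 1640/MOPS/2% glucose, pH 7.0. Inoculum 0.5-5×10^5/mL.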

Candida auris TDG2506 = assay: microbe, parasite or virus in culture; assay type: cell-based; details: Candidozyma auris
Summary of the method: as §8

C. glabrata NCPF8018 = assay: Candida panel MIC, serial dilution in 96-well plates; assay type: cell-based, Candida glabrata; details: Nakaseomyces glabratus
Summary of the method: as §1

C. albicans 3880 = assay: Candida albicans panel MIC; assay type: cell-based; details: Table 6, Candida albicans panel
Method: as §3, §4, §5, §6, §7
(§9) The compounds shown in Table 6 were tested against a further panel of Candida albicans.

C. albicans 3882 = assay: Candida albicans panel MIC; assay type: cell-based; details: Table 6, Candida albicans panel
Method: as §3, §4, §5, §6, §7, §9

C. albicans 3363 = assay: Candida albicans panel MIC; assay type: cell-based; details: Table 6, Candida albicans panel
Method: as §3, §4, §5, §6, §7, §9

C. albicans 3881 = assay: Candida albicans panel MIC; assay type: cell-based; details: Table 6, Candida albicans panel
Method: as §3, §4, §5, §6, §7, §9

C. albicans 3645 = assay: Candida albicans panel MIC; assay type: cell-based; details: Table 6, Candida albicans panel
Method: as §3, §4, §5, §6, §7, §9

C. albicans 3990 = assay: Candida albicans panel MIC; assay type: cell-based; details: Table 6, Candida albicans panel
Method: as §3, §4, §5, §6, §7, §9

C. albicans 8112 = assay: Candida albicans panel MIC; assay type: cell-based; details: Table 6, Candida albicans panel
Method: as §3, §4, §5, §6, §7, §9

C. auris 8984 = assay: Candida panel MIC, serial dilution in 96-well plates; assay type: cell-based, Candida auris
Summary of the method: as §8

C. auris 8971 = assay: as above; assay type: cell-based, Candida auris
Summary of the method: as §8

C. auris 8977 = assay: as above; assay type: cell-based, Candida auris
Summary of the method: as §8

[1] = NCPF3876, Table 4, common panel, 24 hours, ≥50% inhibition, read-out: MIC C. krusei NCPF3876
[2] = Candida albicans, Table 4, common panel, 24 hours, ≥50% inhibition
[3] = NCPF3209, Table 4, common panel, 24 hours, ≥50% inhibition, read-out: MIC C. parapsilosis NCPF3209
[4] = NCPF8760, Table 4, common panel, 24 hours, ≥50% inhibition, read-out: MIC C. tropicalis NCPF8760
[5] = TDG2211, Table 4, extended panel, 24 hours, ≥50% inhibition, read-out: MIC Candida auris TDG2211
[6] = TDG2506, Table 4, extended panel, 24 hours, ≥50% inhibition, read-out: MIC Candida auris TDG2506

Row | Structure (SMILES) | MIC (C. krusei NCPF3876; [1]) | MIC (C. albicans NCPF3281; [2]) | MIC (C. parapsilosis NCPF3209; [3]) | MIC (Candida auris TDG1102) | MIC (Candida auris TDG2512) | MIC (C. auris TDG1912) | MIC (C. tropicalis NCPF8760; [4]) | Activity against Candida auris including resistant strains (panel of Candida species) | MIC (Candida auris TDG2211; [5]) | MIC (Candida auris TDG2506; [6]) | also measured
1 | COc1ccc(-c2ccc(NC3CCN(CC(O)(Cn4cncn4)c4ccc(F)cc4F)CC3)cc2)cc1 (stereo not shown) [Example 4, 2-(2,4-difluorophenyl)-1-(4-((4′-methoxy-[1,1′-biphenyl]-4-yl)amino)piperidin-1-yl)-3-(1H-1,2,4-triazol-1-yl)propan-2-ol] | 0.004 to 0.125 µg/mL (≈ 0.0077 to 0.241 µM) | 0.008 µg/mL (≈ 0.0154 µM) | 0.004 µg/mL (≈ 0.0077 µM) | 0.006 µg/mL (≈ 0.0115 µM) | ≤ 0.003 µg/mL | 0.06 µg/mL (≈ 0.115 µM) | 0.25 µg/mL (≈ 0.481 µM) | highly active | 0.006 µg/mL (≈ 0.0115 µM) | ≤ 0.003 µg/mL | –
2 | N#Cc1ccccc1-c1ccc(NC2CCN(CC(O)(Cn3cncn3)c3ccc(F)cc3F)CC2)cc1 (stereo not shown) [Example 5, 4′-((1-(2-(2,4-difluorophenyl)-2-hydroxy-3-(1H-1,2,4-triazol-1-yl)propyl)piperidin-4-yl)amino)-[1,1′-biphenyl]-2-carbonitrile] | 0.002 to 0.125 µg/mL (≈ 0.00389 to 0.243 µM) | 0.002 to 0.004 µg/mL (≈ 0.00389 to 0.00777 µM) | 0.004 µg/mL (≈ 0.00777 µM) | ≤ 0.003 µg/mL | ≤ 0.003 µg/mL | 0.03 µg/mL (≈ 0.0583 µM) | 0.008 to 0.25 µg/mL (≈ 0.0155 to 0.486 µM) | highly active | 0.006 µg/mL (≈ 0.0117 µM) | 0.006 µg/mL (≈ 0.0117 µM) | MIC (C. glabrata NCPF8018; NCPF8018, Table 4, common panel, 24 hours, ≥50% inhibition, read-out: MIC C. glabrata NCPF8018): 0.125 µg/mL (≈ 0.243 µM)
3 | C[C@@H](c1ncncc1F)[C@](O)(Cn1cncn1)c1ccc(F)cc1F [Voriconazole, voriconazole, reference compound] | – | – | – | > 128 µg/mL | > 128 µg/mL | > 32 µg/mL | – | – | > 128 µg/mL | 2 µg/mL (≈ 5.73 µM) | MIC (C. krusei NCPF3876; NCPF3876, read-out: MIC C. Krusei NCPF3876): 0.5 to 2 µg/mL (≈ 1.43 to 5.73 µM); MIC (C. albicans NCPF3281; Table 6, Candida albicans panel): ≤ 0.007 µg/mL; MIC (C. parapsilosis NCPF3209; NCPF3209, read-out: MIC C. Parapsilosis NCPF3209): ≤ 0.25 µg/mL; MIC (C. albicans 3880): 0.25 µg/mL (≈ 0.716 µM); MIC (C. albicans 3882): 0.25 µg/mL (≈ 0.716 µM); MIC (C. albicans 3363): 1 µg/mL (≈ 2.86 µM); MIC (C. albicans 3881): 0.25 µg/mL (≈ 0.716 µM); MIC (C. albicans 3645): ≤ 0.0078 µg/mL; MIC (C. albicans 3990): 0.25 µg/mL (≈ 0.716 µM); MIC (C. albicans 8112): ≤ 0.00781 µg/mL; MIC (C. tropicalis NCPF8760; NCPF8760, read-out: MIC C. Tropicalis NCPF8760): 4 µg/mL (≈ 11.5 µM); MIC (C. auris 8984; Candidozyma auris, 8984, read-out: MIC C. auris 8984): > 128 µg/mL; MIC (C. auris 8984; Candidozyma auris, 8984, Table 4, extended panel, 24 hours, ≥50% inhibition, read-out: MIC C. auris 8984): > 128 µg/mL; MIC (C. auris 8971; Candidozyma auris, 8971, read-out: MIC C. auris 8971): > 32 µg/mL; MIC (C. auris 8971; Candidozyma auris, 8971, Table 4, extended panel, 24 hours, ≥50% inhibition, read-out: MIC C. auris 8971): > 32 µg/mL; MIC (C. auris 8977; Candidozyma auris, 8977, read-out: MIC C. auris 8977): 32 µg/mL (≈ 91.6 µM); MIC (C. auris 8977; Candidozyma auris, 8977, Table 4, extended panel, 24 hours, ≥50% inhibition, read-out: MIC C. auris 8977): 32 µg/mL (≈ 91.6 µM); MIC (C. glabrata NCPF8018; NCPF8018, read-out: MIC C. Glabrata NCPF8018): 1 µg/mL (≈ 2.86 µM); MIC (Candida auris TDG2211; TDG2211, read-out: MIC C. auris 2211): > 128 µg/mL; MIC (Candida auris TDG2506; TDG2506, read-out: MIC C. auris 2506): 2 µg/mL (≈ 5.73 µM)
